Laboratory results: US9745288B2, “Compounds and methods for treating cancer by inhibiting the urokinase receptor” (Indiana University Research and Technology Corporation, priority 2011, dated 2017)
Read-outs that look alike come from different tables or passages of the source. One block for each compound: values may come before it.

Legend:
[1] = tested on: different signaling molecules; test: Western blot analysis of signaling; assay type: cell-based; settings: n=1
Experimental: In light of the previously reported role of uPAR in signaling, the effect of IPR-993, IPR-737, IPR-81 and IPR-69 on signaling was studied by Western blot analysis (FIG. 23). A concentration-dependent study was carried out for IPR-737.

MDA-MB-231 cells [2] = test: Apoptosis assay, flow cytometry with Annexin V-FITC and PI staining; assay type: cell-based, human; settings: 50 μM
Experimental: Apoptosis Assay. MDA-MB-231 cells were cultured in DMEM medium supplemented with 10% FBS, 100 IU/mL penicillin and 50 μg/mL streptomycin in a humidified atmosphere containing 5% CO2 at 37° C. and grew to 80-90% confluence in P-60 mm plates, then treated with various amounts of compounds or 1% DMSO (as control) for different time points. Collected the supernatants and washed the cells with 1×PBS twice and collected. The cells were detached by using cellstripper (Mediatech Inc, VA), and washed twice with cold 1× PBS and resuspended in 1× binding buffer (Cat. PNN1001, Invitrogen Corporation, Camarillo, Calif.) at a concentration of 1×10^6 cells/mL. Transferred 100 μL of the solution (1×10^5 cells) to a 5 mL culture tube. Added 5 μL of Recombinant Human Annexin V FITC conjugate (Cat. ANNEXINV01, Invitrogen) and 5 μL of propidium iodide solution (Cat. P4864, Sigma-Aldrich, St. Louis, Mo.). Gently vortexed the cells and incubated for 15 min at room (25° C.) in the dark. Added 400 μL of 1× binding buffer to each tube. Analyzed by flow cytometry (FACScan).
(§1) FIGS. 4A-4D show inhibition of MDA-MB-231 proliferation and mechanism of cell killing. To gain insight into the mechanism by which these compounds are inhibiting growth, a flow cytometry analysis with annexin V-FITC and PI staining was performed. The level of apoptotic cells in MDA-MB-231 was assessed by the percentage of Annexin V-positive/PI-negative cells present after exposure of MDAMB-231 cells to increasing concentration of IPR-69 for 24 h (FIG. 4B). At a concentration of 50 μM, IPR-69 induced significant apoptosis as evidenced by a 51% and 21% increase in apoptotic cells (Annexin V positive/PI-negative) and necrotic cells (Annexin V-positive/PI-positive), respectively. […] At a concentration of 50 μM, 26% of cells were necrotic (Annexin V positive/PI-positive), a 22% increase over control. 46% of cells were apoptotic (Annexin V positive/PInegative), compared with 4% of control.

MDA-MB-231 cells [3] = test: MTT proliferation assay; assay type: cell-based, human; settings: read-out: IC50 of cell proliferation (MTT)
Experimental: Proliferation Assay. The procedure consisted of culturing cells at 37° C. in 10% FBS-DMEM medium containing various amounts of compound. 5 mM compound stock in 100% DMSO was 1:50 diluted in medium, filtered, and serially diluted in 96-well plate. Then seeded cells were incubated for 3 days. Viable cells were quantified by MTT assay at absorbance of 570 and 630 nm.
as §1

[4] = tested on: human umbilical vein endothelial cells (HUVEC); test: Matrigel-based tube formation (angiogenesis) assay; assay type: cell-based; settings: HUVEC in Matrigel
phospho-p44/42 MAPK = test: Immunoblot of MAPK phosphorylation in MDA-MB-231 cells; assay type: cell-based, human; settings: 100 μM, 30 minutes
Experimental: Immunoblots. MDA-MB-231 cells treated with 100 μM of compound(s)/1% DMSO for 30 min. Harvested cell lysates in RIPA buffer supplemented with protease inhibitors and phosphatase inhibitors. Under non-reducing condition equal amounts of protein were loaded per lane and separated in 4-12% NuPAGE gel (Invitrogen) at 200 V for 60 minutes, then transferred to Nitrocellulose membrane at 30 V for one hour using XCell II blot module. […] Secondary antibody: goat anti-rabbit IgG HRP 1:3000 in 5% non-fat milk-TBST at room for 1 hour. The protein bands were visualized using Immobilon Western Chemiluminescent HRP Substrate (WBKLS0100, Millipore, Billerica, Mass.). Fibronectin (Sigma, F2006) […] coated in 6-well plates overnight. MDA-MB-231serum-starved for 4 hours and then seeded in FN coated 6-well plates and treated with 5,10, 20 and 40 μM compound(s)/1% DMSO for 30 min, cells were lysated in RIPA buffer supplemented with protease inhibitors and phosphatase inhibitors. Then IB with phospho-p44/42 MAPK (Thr202/Tyr204), p44/42 MAPK; phospho-FAK (Tyr397), FAK; phospho-Src family (Tyr416), Src, respectively.
A concentration-dependent study was subsequently carried out for IPR-1 (FIG. 6B). […] The effect of the compound also was studied in two other signaling pathways including FAK and Src. FAK is constitutively associated with β-integrin subunits of integrin receptors.

hERG channel = target: T1, hERG channel (Homo sapiens, UniProt Q12809); test: hERG fluorescence polarization Predictor Assay; assay type: binding; set-up: dose or concentration left out as unconfirmed
T1 construct: purchased Invitrogen (Carlsbad, Calif.)
Text: Inhibition of the hERG channel is undesirable. Checking for hERG blockage is an integral step in the drug discovery cycle. The presently disclosed method is well-suited for high-throughput measurements based on fluorescence polarization (FP) as implemented in the Predictor Assay by Invitrogen (Carlsbad, Calif.). This assay is based on the principle that a fluorescent tracer upon binding to the hERG channel will induce an increase in the FP signal that will diminish when an inhibitor displaces the interaction between the tracer and the hERG channel.
FP measurements for IPR-1 and IPR-69 were performed using an EnVision (PerkinElmer) plate reader at an excitation of 540 nm and emission at 573 nm. […] At the highest concentration of 25 μM, which is near its biological activity in tumor cells, 60% blockage is detected.

[5] = Homo sapiens, MDA-MB-231, MDA-MB-231

T1 sequence (Q12809 whole entry): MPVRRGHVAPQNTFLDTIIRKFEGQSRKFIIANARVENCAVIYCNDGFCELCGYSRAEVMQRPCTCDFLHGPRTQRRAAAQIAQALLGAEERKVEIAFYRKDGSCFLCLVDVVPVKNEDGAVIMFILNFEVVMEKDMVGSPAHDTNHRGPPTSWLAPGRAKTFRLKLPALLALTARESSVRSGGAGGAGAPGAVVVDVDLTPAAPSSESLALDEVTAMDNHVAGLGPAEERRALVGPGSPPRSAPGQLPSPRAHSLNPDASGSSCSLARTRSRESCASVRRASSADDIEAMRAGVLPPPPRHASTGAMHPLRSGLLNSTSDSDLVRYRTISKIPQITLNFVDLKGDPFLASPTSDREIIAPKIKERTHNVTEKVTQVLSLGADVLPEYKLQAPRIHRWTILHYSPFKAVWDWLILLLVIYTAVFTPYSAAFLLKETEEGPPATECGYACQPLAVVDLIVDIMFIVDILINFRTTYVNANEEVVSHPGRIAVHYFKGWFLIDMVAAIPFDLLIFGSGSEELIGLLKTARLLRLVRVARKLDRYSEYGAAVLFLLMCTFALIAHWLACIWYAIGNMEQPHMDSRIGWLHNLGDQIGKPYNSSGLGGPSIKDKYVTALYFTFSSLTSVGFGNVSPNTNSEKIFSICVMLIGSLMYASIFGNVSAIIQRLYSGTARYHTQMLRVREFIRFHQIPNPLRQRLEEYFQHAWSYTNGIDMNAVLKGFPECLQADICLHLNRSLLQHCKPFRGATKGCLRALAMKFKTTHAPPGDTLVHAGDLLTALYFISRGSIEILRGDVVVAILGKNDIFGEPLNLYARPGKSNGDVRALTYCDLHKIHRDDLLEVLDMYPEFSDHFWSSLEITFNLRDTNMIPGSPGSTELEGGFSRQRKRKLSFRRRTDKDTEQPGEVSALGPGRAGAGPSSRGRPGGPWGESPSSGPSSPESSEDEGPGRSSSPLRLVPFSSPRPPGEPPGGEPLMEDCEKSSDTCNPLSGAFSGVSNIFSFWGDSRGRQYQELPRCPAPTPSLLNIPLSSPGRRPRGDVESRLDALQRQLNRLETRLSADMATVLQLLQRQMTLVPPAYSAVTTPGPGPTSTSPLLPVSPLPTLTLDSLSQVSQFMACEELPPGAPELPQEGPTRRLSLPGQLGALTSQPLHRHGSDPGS

Structure (SMILES): Cc1cc(C)cc(NC(=O)c2cnn(-c3ccc(C(C)C)cc3)c2C2CCNCC2)c1 [IPR-69, N-(3,5-dimethylphenyl)-1-(4-isopropylphenyl)-5-(piperidin-4-yl)-1H-pyrazole-4-carboxamide]
effect on signaling molecules [1]: did not seem to be much of an effect
increase in necrotic cells (Annexin V-positive/PI-positive) (MDA-MB-231 cells [2]): 21%
increase in apoptotic cells (Annexin V positive/PI-negative) (MDA-MB-231 cells [2]; 24 h): 51%
IC50 (MDA-MB-231 cells [3]; [5]): 18 µM
IC50 (MDA-MB-231 cells [3]; MDA-MB-231): 17 µM
IC50 [4]: 3 µM
effect on MAPK phosphorylation (phospho-p44/42 MAPK): abrogated phosphorylation, but the effects were weaker than IPR-9
hERG blockage (hERG channel; […] μM): 60%

IC50 (MDA-MB-231 cells [3]; [5]): 6 µM
Structure (SMILES): CN(C)c1ccc(CNCCC(Cc2ccccc2)c2ccc3c(c2)OCO3)cc1 (racemic) [IPR-9, 4-(((3-(benzo[d][1,3]dioxol-5-yl)-4-phenylbutyl)amino)methyl)-N,Ndimethylaniline]
increase in necrotic cells (Annexin V-positive/PI-positive) (MDA-MB-231 cells [2]): 22%
apoptotic cells (Annexin V positive/PI-negative) (MDA-MB-231 cells [2]; percent of cells): 46%
necrotic cells (Annexin V positive/PI-positive) (MDA-MB-231 cells [2]; percent of cells): 26%
IC50 [4]: 3 µM
effect on MAPK phosphorylation (phospho-p44/42 MAPK): significant impairment
hERG channel blockage (hERG channel; 1, 10 and […] μM): even greater hERG K^+ channel blockage than the well-known channel blocker E-4031
